Drawing on patent US6417386B2, “Cyanohydrazone derivatives” (Syngenta Crop Protection, Inc., priority 1996, dated 2002), this text covers melting point for 2 compounds.

One may read the melting point as the temperature, or range, at which the solid turns liquid.

Molecules are shown by their SMILES.

In turn, `N#C/C(=N\Nc1c(Cl)cc(C(F)(F)F)cc1Cl)c1ccc(C#N)cc1` [Compound 3.4, 4-{1-[(2,6-dichloro-4-trifluoromethylphenyl)hydrazono]-2-nitriloethyl}benzonitrile] returned a melting point of 186 to 187 °C.

Compound `N#C/C(=N\Nc1c(Cl)cc(C(F)(F)F)cc1Cl)c1ccc(Cl)cc1` [Compound 3.16, 4-{1-[(2,6-dichloro-4-trifluoromethylphenyl)hydrazono]-2-nitriloethyl}chlorobenzene] showed a melting point of 164 to 165 °C.
